This experiment concerns caspases 1, 2, 3, 6 and 8. Put plainly: Caspase expression (apoptosis markers) after permanent middle cerebral artery occlusion, model of cortical cerebral ischemia in the rat. The class given is in vivo. On the procedure: The effect of CDP-Choline on deferred nerve cell death (apoptosis) has been assessed in a model of cortical cerebral ischemia in the rat in accordance with the following experimental protocol:
All cerebral infarction tests were performed in male Sprague-Dawley rats weighing 220-270 g. Animals were housed, with free access to food and water, in temperature- and humidity-controlled rooms with a 12/12 h light-dark cycle.
Cerebral ischemia was induced by a permanent proximal occlusion of the middle cerebral artery using electrocoagulation. Under deep anesthesia, the rat head was clipped and an incision was made between the left ear and the left eye. Then, the cranium was exposed by sectioning the temporal muscle. Craniotomy was performed using a 1-2 mm drill behind the scaly fissure. The dura mater was drilled in order to expose the middle cerebral artery arm which was permanently coagulated.
Rats were randomly divided into three groups:
(a) After 30 minutes of ischemia, the animals in this group were treated with CDP-Choline (500 mg/kg) in 0.9% sterile physiologic saline (0.1 ml) administered intraperitoneally. This group is depicted in FIGS. 1 through 5 as “After.”
(b) Since 24 hours before ischemia and after 30 minutes of ischemia, the animals in this group received the same treatment as in group (a). This group is depicted in FIGS. 1 through 5 as “Before.”
(c) The animals in this group were used as control. After ischemia, they were treated with 0.9% physiologic saline vehicle (0.1 ml) administered intraperitoneally. This group is depicted in FIGS. 1 through 5 as “Control.”
The animals were allowed to recover at different times (30 min and 1, 4, 8, 12, 24 and 48 hours) before terminal anesthesia with ethyl ether. […]
For assessment of the effect of treatment, the expression of caspases 1, 2, 3, 6 and 8, as markers of apoptosis process, was measured 12 hours after infarction induction, whose results are shown in FIGS. 1, 2, 3, 4, and 5, respectively. […]

As for `C[N+](C)(C)CCOP(=O)(O)OP(=O)([O-])OC[C@H]1O[C@@H](n2ccc(N)nc2=O)[C@H](O)[C@@H]1O` [CDP-Choline, cytidine-diphosphate-choline], the “caspase level, treatment before and after ischemia compared with treatment only after ischemia” value (500 mg/kg intraperitoneally from 24 hours before ischemia and 30 minutes after ischemia ('Before') vs only 30 minutes after ischemia ('After'), 12 hours after infarction induction) was “decreases caspase level more significantly than when administered only after infarction induction”. Further, the “expression of caspases 1, 2, 3, 6 and 8 as markers of apoptosis process, treated vs control” value (male Sprague-Dawley rats, CDP-Choline 500 mg/kg intraperitoneally, groups 'After' and 'Before' vs saline control, measured 12 hours after infarction induction, figures in immunofluorescence units) was “significant differences between treated and control animals”. Further, the “nerve cell apoptosis in the penumbra area” value (summary statement in the description, rat focal ischemia model) was “reduces nerve cell apoptosis in the penumbra area”.

Values taken from patent US7635691B2, “Use of CDP-choline for the prophylactic treatment of cerebral ischemia” (Ferrer Internacional, S.A., priority 2000, dated 2009).
